Reference: PubChem BioAssay (NCI)
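Results reflect a 48-hour exposure of cells in 96-well plates to compound at five concentrations. The concentration for full growth arrest is given as TGI.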

Key:
Test in all cases: NCI tumour cell line growth inhibition, 48 h
BT-549 breast = test system: BT-549 breast
MDA-N = test system: MDA-N
DMS 114 small cell lung = test system: DMS 114 small cell lung
DMS 273 small cell lung = test system: DMS 273 small cell lung
HOP-18 NSCLC = test system: HOP-18 NSCLC
KM20L2 colon = test system: KM20L2 colon
M19-MEL melanoma = test system: M19-MEL melanoma
P388 leukemia = test system: P388 leukemia
P388/ADR leukemia = test system: P388/ADR leukemia
SN12K1 renal = test system: SN12K1 renal
SNB-78 CNS = test system: SNB-78 CNS
LXFL 529 NSCLC = test system: LXFL 529 NSCLC
RXF-631 renal = test system: RXF-631 renal

SMILES: CO[C@](C(=O)OC[C@H]1[C@@H](COC(C)=O)[C@@H]2O[C@H]1c1cc3c(cc12)OCO3)(c1ccccc1)C(F)(F)F
- TGI (BT-549 breast): > 100 µM
- TGI (MDA-N): > 100 µM

SMILES: Cc1ccc(C(=O)OC(C(=O)O)C(OC(=O)c2ccc(C)cc2)C(=O)O)cc1 (centres undefined) (tested in a mixture with another compound)
- TGI (DMS 114 small cell lung): 12.9 µM
- TGI (DMS 273 small cell lung): 10.7 µM
- TGI (HOP-18 NSCLC): 4.39 µM
- TGI (KM20L2 colon): 13 µM
- TGI (M19-MEL melanoma): 15.1 µM
- TGI (P388 leukemia): 7.53 µM
- TGI (P388/ADR leukemia): 11.7 µM
- TGI (SN12K1 renal): 8.41 µM
- TGI (SNB-78 CNS): 33.8 µM

SMILES: O=C(CC1Sc2ccccc2NC1=O)Nc1ccccc1[N+](=O)[O-] (centres undefined)
- TGI (DMS 273 small cell lung): > 100 µM
- TGI (HOP-18 NSCLC): > 100 µM
- TGI (KM20L2 colon): > 100 µM
- TGI (LXFL 529 NSCLC): > 100 µM
- TGI (M19-MEL melanoma): > 100 µM
- TGI (RXF-631 renal): > 100 µM
- TGI (SNB-78 CNS): > 100 µM

SMILES: Oc1ccc(NCn2c(=S)sc3ccccc32)cc1
- TGI (BT-549 breast): > 100 µM
